# Assay results as given in US10689708B2, “Methods for treating diffuse large B-cell lymphoma and the use of biomarkers as a predictor of responsiveness to drugs” (Celgene Corporation, priority 2015, dated 2020).
# Tested on: relapsed or refractory DLBCL
# Experiment: Compound A treatment of relapsed or refractory DLBCL patients stratified by 26-gene (Table 2) classifier: PFS and tumor measurement
# Type: in vivo, human
# Settings: for PFS: Compound A treatment (FIG. 3)
# Description: In another exemplary study, a computational decision function was applied to gene expression values for the 26 genes in Table 2 to predict the positive/negative outcome sub-group membership of relapsed or refractory DLBCL patients for responsiveness to Compound A treatment alone or in combination with other agents.
# The response to Compound A treatment of each of a group of relapsed or refractory DLBCL patients was predicated based on the gene expression levels of 26 genes of Table 2, and the group of patients were classified into two populations—the population predicted to be responsive to Compound A treatment (26 genes positive population) and the other population predicted to be not responsive to Compound A (26 genes negative population).
# The expression levels of the 26 genes were measured as follows: DLBCL lymph-node biopsies were formalin fixed and paraffin embedded. Nucleic acids obtained from the tissues were extracted using the Roche High Pure FPPET kit, according to the manufacturer's instructions. The RNA was quantitated using spectrophotometry (NanoDrop, Thermo Science, DE). Gene expression on approximately 200 nanograms of RNA was used to determine gene expression levels by means of NanoString technology (NanoString Technologies, WA). The total RNA was hybridized to the custom codesets at 65° C. overnight. The reaction was processed on the nCounter™ Prep Station and gene expression data was then acquired on the nCounter™ Digital Analyzer.
# Then, the patients' response to Compound A treatment were measured by progression free survival (PFS). The results are shown in FIG. 3, and as shown, that there is a significant benefit, as measured by PFS, of 26 gene positive population (upper line) as compared to 26 genes negative population (lower line) (PFS 17.43 weeks in 26 genes positive population versus PFS 6.57 weeks in 26 genes negative population).
# Additionally, the response to Compound A of DLBCL patients with historically poor prognosis was measured by Nanostring. […] This is comparison to patients in the 26 genes positive population (blue line), in which 4 patients obtained a durable clinical response of greater than 50% decrease in tumor size (see FIG. 8). Similar results were observed when examining patients with primary refractory DLBCL that had also had at least 3 or more prior lines of therapy (see FIG. 9).
smiles,measurement,setting,value
"Cc1nc2cccc(N)c2c(=O)n1C1CCC(=O)NC1=O (centres unmarked) [Compound A, 3-(5-amino-2-methyl-4-oxo-4H-quinazolin-3-yl)-piperidine-2,6-dione]",PFS at 6 months,26 genes negative population,5.4%
same,PFS,26 genes negative population,6.57 weeks
same,PFS at 6 months,26 genes positive population,44.6%
same,PFS,26 genes positive population,17.43 weeks
same,median PFS,ABC subtype of DLBCL (FIG. 7),12.1 weeks
same,median PFS,GCB subtype of DLBCL (FIG. 7),15.6 weeks
same,"tumor measurement, clinical response",majority of patients in the 26 genes negative population (FIG. 5),rapid progression or short responses
same,"tumor measurement, clinical response",majority of patients in the 26 genes positive population (FIG. 4),clinical response of greater than 50% decrease in tumor size and/or have stable disease
same,"tumor measurement, clinical course","primary refractory disease (less than complete response to R-CHOP), 26 genes negative population (FIG. 8)",experienced rapid progression
same,patients who obtained a durable clinical response of greater than 50% decrease in tumor size,"primary refractory disease (less than complete response to R-CHOP), 26 genes positive population (FIG. 8)",4 patients
same,median PFS,unclassified subtype of DLBCL (FIG. 7),7 weeks
